Several values for one entry are separate records, joined by “and”; a condition that tells them apart may be missing. Equal values may be shown once.
Key:
Experiment in all cases: Disk assay, zone of inhibition
Type in all cases: cell-based
[1] = system: Escherichia coli, ATCC #8739; conditions: 1% solution in saline on disk, Plates 1-3, "No Zone" = no antibacterial activity observed
Protocol: (§1) The antibiotic activity of a 1% memantine-lactose adduct solution in saline was assayed using a disk assay against three USP bacteria cultures: Staphylococcus aureus, Pseudomonas aeruginosa and Escherichia coli. A negative control, 0.9% saline disk, and a positive control, 1% gentamicin solution in saline, were included. Antibacterial activity was evaluated by measuring (in mm) the size of any clear zone of no growth (i.e., Zone of Inhibition) around each sample. A “No Zone” is reported when no antibacterial activity is observed. […] These experiments may be predictive of biological effects in humans or other mammals and/or may serve as models for use of the present invention in humans or other mammals for the treatment of infections caused by Gram positive or Gram negative bacteria. See, e.g., Kustimur et al., Chinese Medical Journal, 116(4):633-636 (2003).

[2] = system: Pseudomonas aeruginosa, ATCC #9027; conditions: 1% solution in saline on disk, Plates 1-3, "No Zone" = no antibacterial activity observed
Protocol: as §1

[3] = system: Staphylococcus aureus, ATCC #6538
Protocol: as §1

Row | Compound | Zone of Inhibition [1] | Zone of Inhibition [2] | antibacterial activity (result in words) ([3]; Staphylococcus aureus, 1% solution in saline, disk assay) | Zone of Inhibition ([3]; Staphylococcus aureus ATCC #6538, 1% solution in saline on disk, Plates 1-3, "No Zone" = no antibacterial activity observed)
1 | CC12CC3CC(C)(C1)CC(NCC(=O)[C@@H](O)C(O[C@@H]1O[C@H](CO)[C@@H](O)[C@H](O)[C@H]1O)[C@H](O)CO)(C3)C2 (stereo partly drawn) [Memantine-lactose adduct] | No Zone | No Zone | found to have antibacterial activity | –
2 | gentamicin | 15.5 mm and 16.8 mm | 11.2 mm and 10.9 mm and 9.9 mm | – | 19.3 mm and 19.1 mm and 15.8 mm
